Measurements reported in patent US8716325B2, “Treatment of cachexia” (PsiOxus Therapeutics Limited, priority 2006, dated 2014).
Read-outs that look alike come from different tables or passages of the source.

Legend:
[1] = cited from earlier work
5-HT1a = target: T1, 5-HT1a (Rattus norvegicus, UniProt P19327); conditions: functional tests, Eur J Pharmacol. 1986; 128 (3): 295-8; cited from earlier work
T1 construct: suppressant effects of 5-HT1a agonists on dorsal raphe neuronal firing; host or cells: dorsal raphe neurons (endogenous receptor)
T1 sequence (P19327 1-422): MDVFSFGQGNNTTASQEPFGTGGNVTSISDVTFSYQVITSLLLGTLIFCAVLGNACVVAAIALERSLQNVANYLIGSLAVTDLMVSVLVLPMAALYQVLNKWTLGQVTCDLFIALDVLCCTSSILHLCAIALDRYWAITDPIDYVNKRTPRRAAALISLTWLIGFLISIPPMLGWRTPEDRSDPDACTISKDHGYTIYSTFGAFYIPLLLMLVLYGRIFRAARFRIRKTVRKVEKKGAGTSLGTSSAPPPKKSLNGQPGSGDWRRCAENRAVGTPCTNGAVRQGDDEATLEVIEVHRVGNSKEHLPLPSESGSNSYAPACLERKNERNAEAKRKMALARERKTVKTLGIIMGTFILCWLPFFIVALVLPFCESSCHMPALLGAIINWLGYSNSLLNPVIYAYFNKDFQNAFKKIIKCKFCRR

[2] = system: Ascites hepatoma Yoshida AH-130 cells; assay: Yoshida AH-130 ascites hepatoma rat model of cancer cachexia; format: in vivo, male Wistar rats; conditions: for Locomotor activity 24 h day 11: Supermex system, marker for fatigue; for Locomotor activity 24 h day 11 / Food intake day 11 / Lean tissue gain without tumour / Lean tissue without tumour / Weight gain without tumour / Body weight without tumour: mean±SEM; for Lean tissue gain without tumour / Lean tissue without tumour / Weight gain without tumour / Body weight without tumour: end of study; for Body weight without tumour: oral gavage, twice daily
From the text: Ascites hepatoma Yoshida AH-130 cells (10^8 cells) are inoculated into 180-200 g male Wistar rats. Alternatively animals receive saline injection only (sham). The animals are housed in groups of three. The day after inoculation animals are randomized into various groups and then receive twice daily treatment with either placebo or compounds over a period of up to 17 days. The primary endpoints of the study include assessment of body weight, body composition (with and without tumour) and survival. Organ weight is assessed at the end of the study (or after death) as a secondary endpoint. In addition locomotor activity is used to assess fatigue using Supermex system (Muromachi, Tokyo, Japan) over a period of 24 hours in cages where the animals are placed individually (type 3 cage); missing data (if due to death) are imputed as ‘zero’ activity; a sensitivity analysis without imputed points is additionally performed. Food intake is also measured. Results are expressed as mean±SEM at the end of the study except where stated otherwise. Doses represent total daily dose given by oral gavage.

[3] = animal model of cancer cachexia, summary in words

## CC(C)NCC(O)COc1cccc2[nH]ccc12 (racemic) [racemic pindolol, pindolol, reference compound]
[1]; healthy subjects, similar dose of (S)-pindolol and racemic pindolol
  Effect on blood pressure: reducing diastolic blood pressure

## CC(C)NC[C@@H](O)COc1cccc2ccccc12 [(R)-propranolol, reference compound]
5-HT1a
  Block of the suppressant effects of 5-HT1a agonists on dorsal raphe neuronal firing: not

## CC(C)NC[C@H](O)COc1cccc2ccccc12 [(S)-propranolol, (S)-1-isopropylamino-3-(1-naphthyloxy)-2-propanol]
5-HT1a
  Block of the suppressant effects of 5-HT1a agonists on dorsal raphe neuronal firing: blocked the suppressant effects

## CC(C)NCC(O)COc1ccc(COCCOC(C)C)cc1 (centres unmarked) [Bisoprolol, reference compound]
[2]; 5 mg/kg/d oral gavage
  Locomotor activity 24 h day 11: 315 ± 58
  Food intake day 11: 16.00 ± 3.07 g
  Lean tissue gain without tumour: -1.38 ± 11.31 g
  Lean tissue without tumour: 158.10 ± 11.86 g
  Weight gain without tumour: -5.46 ± 15.95 g
[2]; 5 mg/kg/d total daily dose
  Body weight without tumour: 202.0 ± 16.04 g
[2]; 50 mg/kg/d oral gavage
  Locomotor activity 24 h day 11: 277 ± 39
  Food intake day 11: 9.94 ± 2.10 g
  Lean tissue gain without tumour: -28.96 ± 6.64 g
  Lean tissue without tumour: 124.77 ± 7.17 g
  Weight gain without tumour: -30.30 ± 10.95 g
[2]; 50 mg/kg/d total daily dose
  Body weight without tumour: 159.18 ± 9.64 g
[2]; [3]
  Effect on locomotor activity, as a marker for fatigue: neutral to negative

## CC(C)NC[C@H](O)COc1cccc2[nH]ccc12 [S-pindolol, S-(−)-1-(1H-indol-4-yloxy)-3-(1-methylethylamino)propan-2-ol]
[2]; 0.3 mg/kg/d oral gavage
  Locomotor activity 24 h day 11: 361 ± 38
  Food intake day 11: 7.75 ± 5.22 g
  Lean tissue gain without tumour: -1.17 ± 15.84 g
  Lean tissue without tumour: 152.37 ± 15.47 g
  Weight gain without tumour: -8.50 ± 19.19 g
[2]; 0.3 mg/kg/d total daily dose
  Body weight without tumour: 178.89 ± 17.04 g
[2]; 3 mg/kg/d oral gavage
  Locomotor activity 24 h day 11: 368 ± 50
  Food intake day 11: 15.33 ± 3.84 g
  Lean tissue gain without tumour: 18.90 ± 16.06 g
  Lean tissue without tumour: 171.99 ± 15.92 g
  Weight gain without tumour: 17.30 ± 20.08 g
[2]; 3 mg/kg/d total daily dose
  Body weight without tumour: 215.10 ± 19.89 g
[2]; [3]
  Effect on cachectic weight loss: able to reduce cachectic weight loss
  Effect on locomotor activity, as a marker for fatigue: positive effect on locomotor activity
  Effect on tumour weight: reducing the tumour weight
[1]; in vivo
  Effect on blood pressure: no alteration in blood pressure in a majority of healthy subjects
